Patent US20230330093A1, “APPLICATION OF NITROGEN-CONTAINING SATURATED HETEROCYCLIC COMPOUND” (SHANGHAI PHARMACEUTICALS HOLDING CO., LTD., priority 2020, published 2023)
Several values for one entry are separate records, joined by “and”; a condition that tells them apart may be missing. Equal values may be shown once.

Tests used:
[1] = system: rhesus monkeys with spontaneous chronic kidney disease; test: Effect on heart function, cardiac Doppler ultrasound, 8-week administration; details: for Ea / LVEF: Valsartan group (n = 3)
Experimental: In the trial, animals were brought in three stages.
This was performed once before administration and once after administration. UACR=MALB/Cr—U. • Blood pressure: the blood pressure was checked after anesthesia, including systolic blood pressure (SBP), diastolic blood pressure (DBP), mean blood pressure (MBP) and heart rate (HR). This was performed once before administration and once at weeks 4 and 8 respectively after administration. • Cardiac GE Doppler ultrasound: historical cardiac ultrasonography once within 1 year (selected animals), once before administration (within 30 days (D-30) of the baseline period), and once at week 8 after administration.
Anesthesia method: 15 mg/kg of ketamine hydrochloride was used for intramuscular injection anesthesia. According to the animal anesthesia state, the supplemental anesthesia will be performed after judgment by veterinarian. Each supplemental anesthesia dose was ½ of the initial dose.
Detection method: The animal was placed in the left decubitus position, and the 6S-RS probe (frequency 2.7-8.0 MHz) was used for image acquisition.
Analysis method: After the image was collected and saved, the supporting analysis workstation EchoPAC Software was used to repeatedly detect various indicators of systolic and diastolic functions in 3 consecutive cardiac cycles.
Testing indicators and ultrasonic technology: see Table 9 below.
Testing equipment: GE Vivid S5 color Doppler ultrasound diagnostic system.

[2] = system: rhesus monkeys with spontaneous chronic kidney disease; test: Effect on BUN, 8-week administration; assay type: in vivo, Macaca mulatta (Rhesus Macaque); details: Valsartan group (n = 3)
Experimental: (§1) In the trial, animals were brought in three stages. […] Glomerular filtration rate […]: creatinine (Cr-P), urea nitrogen (BUN) and cystatin (CysC) were detected, and the eGFR value was obtained by calculation. It was performed once before the administration and once every two weeks after the administration. […] ELISA kit was used for NT-proBNP test. [table]

[3] = system: rhesus monkeys with spontaneous chronic kidney disease; test: Effect on plasma creatinine Cr-P, 8-week administration; assay type: in vivo, Macaca mulatta (Rhesus Macaque); details: Valsartan group (n = 3)
Experimental: as §1

[4] = system: rhesus monkeys with spontaneous chronic kidney disease; test: Effect on cystatin C (CysC), 8-week administration; assay type: in vivo, Macaca mulatta (Rhesus Macaque); details: Valsartan group (n = 3)
Experimental: as §1

[5] = system: rhesus monkeys with spontaneous chronic kidney disease; test: Effect on glomerular filtration rate eGFRcreat-cys, 8-week administration; assay type: in vivo, Macaca mulatta (Rhesus Macaque); details: for eGFRcreat-cys / eGFRcreat-cys Change value (8 weeks): Valsartan group (n = 3); for eGFRcreat-cys Change value (8 weeks): 8 weeks − Baseline
Experimental: CKD-EPI rating […]-G3b, glomerular filtration rate eGFR: 30 59 ml/min/1.73 m^2; or moderate to severe increase in proteinuria (A2-A3): urine albumin/creatinine ratio (UACR)>15 mg/g-350 mg/g (4-6 hour urine collection), vs. age-matched control group 3±2 mg/g. In the trial, animals were brought in three stages. […] Glomerular filtration rate […]: creatinine (Cr-P), urea nitrogen (BUN) and cystatin (CysC) were detected, and the eGFR value was obtained by calculation. It was performed once before the administration and once every two weeks after the administration. […] ELISA kit was used for NT-proBNP test. [table] Selected […] in each group: 30 59 ml/min/1.73 m^2. The changes in the glomerular filtration rate of W8 and baseline were analyzed.

[6] = Baseline, single animals and Mean ± SD
[7] = Baseline, single animals and Mean ± SD, mean

SMILES: CCCCC(=O)N(Cc1ccc(-c2ccccc2-c2nnn[nH]2)cc1)[C@H](C(=O)O)C(C)C [Valsartan, reference compound]
- Ea ([1]; 8 weeks): 7.01 cm/s and 7.17 cm/s and 4.61 cm/s
- LVEF ([1]; 8 weeks): 64.09% and 57.98% and 61.97%
- Ea ([1]; Baseline): 4.16 cm/s and 5.14 cm/s and 3.44 cm/s
- LVEF [1, 6]: 64.02% and 58.75% and 59.26%
- adverse reaction in the systolic and diastolic function (echocardiography) ([1]; each dose group, 8-week administration): no obvious adverse reaction
- BUN ([2]; 4 weeks): 22.2 mg/dL and 29.1 mg/dL and 33.4 mg/dL
- BUN ([2]; 4 weeks, mean): 28.2 ± 5.7 mg/dL
- BUN ([2]; 8 weeks): 19.5 mg/dL and 33.4 mg/dL and 26.0 mg/dL
- BUN ([2]; 8 weeks, mean): 26.3 ± 7.0 mg/dL
- BUN ([2]; Baseline2, single animals and Mean ± SD): 19.0 mg/dL and 25.4 mg/dL and 31.2 mg/dL
- BUN ([2]; Baseline2, single animals and Mean ± SD, mean): 25.2 ± 6.1 mg/dL
- Cr-P ([3]; 2 weeks): 1.12 mg/dL and 1.22 mg/dL
- Cr-P ([3]; 2 weeks, mean): 1.15 ± 0.06 mg/dL
- Cr-P ([3]; 4 weeks): 1.12 mg/dL and 1.08 mg/dL and 1.26 mg/dL
- Cr-P ([3]; 4 weeks, mean): 1.15 ± 0.09 mg/dL
- Cr-P ([3]; 6 weeks): 1.11 mg/dL and 1.26 mg/dL
- Cr-P ([3]; 6 weeks, mean): 1.16 ± 0.09 mg/dL
- Cr-P ([3]; 8 weeks): 1.09 mg/dL and 1.03 mg/dL and 1.26 mg/dL
- Cr-P ([3]; 8 weeks, mean): 1.13 ± 0.12 mg/dL
- Cr-P [3, 6]: 1.28 mg/dL and 1.31 mg/dL and 1.50 mg/dL
- Cr-P [3, 7]: 1.36 ± 0.12 mg/dL
- CysC ([4]; 2 weeks): 1.44 mg/L and 1.62 mg/L and 1.76 mg/L
- CysC ([4]; 2 weeks, mean): 1.61 ± 0.16 mg/L
- CysC ([4]; 4 weeks): 1.47 mg/L and 1.65 mg/L and 1.74 mg/L
- CysC ([4]; 4 weeks, mean): 1.62 ± 0.14 mg/L
- CysC ([4]; 6 weeks): 1.58 mg/L and 1.69 mg/L
- CysC ([4]; 6 weeks, mean): 1.62 ± 0.06 mg/L
- CysC ([4]; 8 weeks): 1.59 mg/L and 1.64 mg/L and 1.63 mg/L
- CysC ([4]; 8 weeks, mean): 1.62 ± 0.03 mg/L
- CysC [4, 6]: 1.66 mg/L and 1.68 mg/L and 1.73 mg/L
- CysC [4, 7]: 1.69 ± 0.04 mg/L
- eGFRcreat-cy, Change value ([5]; Valsartan group 2.67 mg/kg/time oral (qd wk 1-2, bid wk 3-8), Baseline, per animal + Mean ± SD): 0 ml/min/1.73 m^2
- eGFRcreat-cy, Change value ([5]; Valsartan group 2.67 mg/kg/time oral (qd wk 1-2, bid wk 3-8), Baseline, per animal + Mean ± SD, mean): 0 ± 0 ml/min/1.73 m^2
- eGFRcreat-cy, Change value ([5]; Valsartan group 2.67 mg/kg/time oral, 2 weeks vs baseline, per animal + Mean ± SD): 4 ml/min/1.73 m^2 (2×) and 6 ml/min/1.73 m^2
- eGFRcreat-cy, Change value ([5]; Valsartan group 2.67 mg/kg/time oral, 2 weeks vs baseline, per animal + Mean ± SD, mean): 5 ± 1 ml/min/1.73 m^2
- eGFRcreat-cy, Change value ([5]; Valsartan group 2.67 mg/kg/time oral, 4 weeks vs baseline, per animal + Mean ± SD): 1 ml/min/1.73 m^2 and 7 ml/min/1.73 m^2 and 6 ml/min/1.73 m^2
- eGFRcreat-cy, Change value ([5]; Valsartan group 2.67 mg/kg/time oral, 4 weeks vs baseline, per animal + Mean ± SD, mean): 5 ± 3 ml/min/1.73 m^2
- eGFRcreat-cy, Change value ([5]; Valsartan group 2.67 mg/kg/time oral, 6 weeks vs baseline, per animal + Mean ± SD): 1 ml/min/1.73 m^2 and 5 ml/min/1.73 m^2 and 7 ml/min/1.73 m^2
- eGFRcreat-cy, Change value ([5]; Valsartan group 2.67 mg/kg/time oral, 6 weeks vs baseline, per animal + Mean ± SD, mean): 4 ± 3 ml/min/1.73 m^2
- eGFRcreat-cy, Change value ([5]; Valsartan group 2.67 mg/kg/time oral, 8 weeks vs baseline, per animal + Mean ± SD (p<0.01 vs placebo)): 6±2 ml/min/1.73 m^2 and 5 ml/min/1.73 m^2 and 8 ml/min/1.73 m^2
- eGFRcreat-cys ([5]; 2 weeks): 58 ml/min/1.73 m^2 and 54 ml/min/1.73 m^2 and 46 ml/min/1.73 m^2
- eGFRcreat-cys ([5]; 2 weeks, group mean): 53 ± 6 ml/min/1.73 m^2
- eGFRcreat-cys ([5]; 4 weeks): 55 ml/min/1.73 m^2 and 57 ml/min/1.73 m^2 and 46 ml/min/1.73 m^2
- eGFRcreat-cys ([5]; 4 weeks, group mean): 53 ± 6 ml/min/1.73 m^2
- eGFRcreat-cys ([5]; 6 weeks): 55 ml/min/1.73 m^2 and 47 ml/min/1.73 m^2
- eGFRcreat-cys ([5]; 6 weeks, group mean): 53 ± 5 ml/min/1.73 m^2
- eGFRcreat-cys ([5]; 8 weeks): 60 ml/min/1.73 m^2 and 59 ml/min/1.73 m^2 and 46 ml/min/1.73 m^2
- eGFRcreat-cys Change value (8 weeks) [5]: 5 ml/min/1.73 m^2 and 8 ml/min/1.73 m^2
- eGFRcreat-cys Change value (8 weeks) ([5]; group mean): 6 ± 2 ml/min/1.73 m^2
- eGFRcreat-cys ([5]; 8 weeks, group mean): 55 ± 8 ml/min/1.73 m^2
- eGFRcreat-cys [5, 6]: 55 ml/min/1.73 m^2 and 50 ml/min/1.73 m^2 and 40 ml/min/1.73 m^2
- eGFRcreat-cys ([5]; Baseline, single animals and Mean ± SD, group mean): 48 ± 7 ml/min/1.73 m^2
